According to article PMC7493962, “Structure-based inhibitors targeting the alpha-helical domain of the Spiroplasma melliferum histone-like HU protein” (Scientific Reports, 2020):
Converted amounts (≈) assume the structure as drawn. Like-named read-outs stand apart in the source and are kept apart here.

Columns and labels:
[1] = biological target: HUSpm (Spiroplasma melliferum, UniProt A0ABX5UAT3); experiment: biochemical; type: binding
Method: In silico screening by molecular docking and filtering was performed to identify compounds interacting with the core region of the DNA-binding saddle-like domain of HU proteins (Fig. 1A) previously characterized in[35]. High-resolution spatial structure of HUSpm (PDB ID 5L8Z[9]) was chosen as a target for virtual screening of one million compounds from the Vitas-M laboratory library collection (https://vitasmlab.biz/). The screening (see "Methods" for a description) identified a set of five compounds (Supplementary Table S1), further evaluation of which was carried out by an electromobility shift assay (EMSA) performed as described in[5]. In the assay, formation of DNA–protein complexes retards migration of dye-labeled DNA-duplexes during non-denaturing PAGE that gives a shifted fluorescent band. The presence of an inhibitor prevents complex formation and corresponding band shifting.
All oligonucleotides were synthesized by Evrogen (Moscow, Russia).
For 48 bp DNA duplexes, 8% PAAG was used.

[2] = biological target: HUMgal (Mycoplasmoides gallisepticum, UniProt A0A0F6CKR5); experiment: EMSA, inhibition of HUMgal DNA binding; set-up: species or system Mycoplasma gallisepticum
Method: (§3) One protein was from mycoplasma M. gallisepticum (HUMgal) and another was HUα-homodimer from E. coli (HUEc). […] To assess the effect of the three BDFs on DNA binding properties of the three HU proteins, increasing concentrations of inhibitors were mixed with preset DNA–protein complexes and EMSA was performed and quantified as described in the Methods.
(§4) Binding of HU proteins to DNA was analyzed by electrophoretic mobility shift assays (EMSA) performed as described previously[5]. Different amounts of the HU proteins (30 nM HUSpm and HUSpm_K35T, 60 nM HUMgal and HUEc, 100 nM HUSpm_K80A and HUSpm_K88A, and 200 mM HUSpm_R57A) were incubated with DNA (10 nM) in 10 μl of the binding buffer (20 mM Tris–HCl pH 8.0, 7% glycerol, and 150 mM of NaCl) for 10 min. Then, the samples were loaded to pre-runned (125 V, 30 min) 10% non-denaturing PAAG, buffered with 100 mM Tris–borate, and electrophoretically separated (125 V, 90 min). […] Gels were visualized using BIO RAD Faros FX Molecular Imager (532 nm EX, 605 nm BP), and quantification was performed using Quantity One software.
(§5) To evaluate the effects of inhibitors, 1 μl volumes of serial dilutions of tested compounds or DMSO were added to the preformed protein-DNA complexes. After five minute incubation, the assay was carried out as described above. Inhibition curves and IC50 values were obtained using GraphPad Prism 5 software.

[3] = system: HUSpm mutants (F14A, F29A, F31A); experiment: EMSA, inhibitor evaluation on HUSpm mutants F14A, F29A, F31A; type: binding, Spiroplasma melliferum; details: data not shown
[4] = biological target: HUSpm_K88A (Spiroplasma melliferum, UniProt A0ABX5UAT3, K88A); details: read-out: IC50 against HUSpm mutant HUSpm_R88A (so in the source); EMSA with DS24a; mean ± SD from three runs; 100 nM protein
Method: (§6) Binding of HU proteins to DNA was analyzed by electrophoretic mobility shift assays (EMSA) performed as described previously[5]. Different amounts of the HU proteins (30 nM HUSpm and HUSpm_K35T, 60 nM HUMgal and HUEc, 100 nM HUSpm_K80A and HUSpm_K88A, and 200 mM HUSpm_R57A) were incubated with DNA (10 nM) in 10 μl of the binding buffer (20 mM Tris–HCl pH 8.0, 7% glycerol, and 150 mM of NaCl) for 10 min. Then, the samples were loaded to pre-runned (125 V, 30 min) 10% non-denaturing PAAG, buffered with 100 mM Tris–borate, and electrophoretically separated (125 V, 90 min). […] Gels were visualized using BIO RAD Faros FX Molecular Imager (532 nm EX, 605 nm BP), and quantification was performed using Quantity One software. The dissociation constants (Kd) were calculated as described earlier[16].
as §5

[5] = biological target: HUSpm_K80A (Spiroplasma melliferum, UniProt A0ABX5UAT3, K80A); details: read-out: IC50 against HUSpm mutant HUSpm_K80A; EMSA with DS24a; mean ± SD from three runs; 100 nM protein
Method: as §6, §5

[6] = biological target: HUSpm_K35T (Spiroplasma melliferum, UniProt A0ABX5UAT3, K35T)
Method: Thus, previously obtained HUSpm mutants (F14A, F29A, F31A and K35T) were employed for inhibitor evaluation.
as §6, §5

[7] = Solubility (stated in words); type: physicochemical; details: water
[8] = biological target: HUSpm_R57A (Spiroplasma melliferum, UniProt A0ABX5UAT3, R57A); details: read-out: IC50 against HUSpm mutant HUSpm_R57A; EMSA with DS24a; mean ± SD from three runs; 200 mM HUSpm_R57A as printed
Method: as §6, §5

[9] = system: M. gallisepticum S6; experiment: Broth micro-dilution test, MIC; type: cell-based, Mycoplasma gallisepticum; details: M. gallisepticum growth in culture, phenol red colour change, three determinations
Source text: (§1) Since HU proteins are known to be essential for mycoplasma cell viability, [32], we assessed the effects of the inhibitors on M. gallisepticum and S. melliferum growth in culture. […] The growth of metabolizing organisms causes a change in the pH of the medium leading to a visible color change due to the presence of phenol red in the medium. When the growth of bacteria is inhibited, color change is not observed. The MIC is the lowest inhibitor concentration that prevents the color change at the time when the color change has developed in control (untreated) samples.
(§2) The S. melliferum KC3 strain was kindly provided by Prof. G. Wroblewsky of the University of Rennes, France. The M. gallisepticum S6 strain was provided by Prof. S. N. Borkhsenius, Institute of Cytology, St. Petersburg, Russian Academy of Science. The bacteria were cultivated as described in[62] without any specific aeration in covered flasks, for less than five passage. M. gallisepticum S6 was cultivated in a modified Edward’s liquid medium (tryptose (20 g/l), Tris (3 g/l), NaCl (5 g/l), KCl (1.3 g/l), yeast dialysate (5%), heat inactivated (56 °C–30 min) horse serum (6%), glucose (0.5%) and penicillin 300U/ml, pH 7.5) at 37 °C for 20 h after 1:100 dilution. […]

[10] = system: S. melliferum KC3; experiment: Broth micro-dilution test, MIC; type: cell-based, Spiroplasma melliferum; details: S. melliferum growth in culture, phenol red colour change, three determinations
Source text: as §1, §2

[11] = biological target: T1, HUEc (HUα-homodimer from E. coli) (Escherichia coli, UniProt P0ACF0); experiment: biochemical; type: binding
T1 construct: made in house
Method: as §3, §4, §5

[12] = system: HUSpm (Spiroplasma melliferum), PDB:5L8Z_1; experiment: EMSA; details: EMSA: 20 mM Tris-HCl pH 8.0, 150 mM NaCl, 7% glycerol, 10 nM DNA, 10 min, temperature not stated; NMR: 50 mM sodium phosphate pH 7.2, 0.1 mM NaN3, 30 C
[13] = EMSA with DS24a duplex, average±SD from three runs, read-out: IC50, half-maximal inhibitory concentration of HUSpm-DNA complex formation
[14] = EMSA with DS24a, average ± SD from three runs, read-out: IC50, inhibition of HUMgal DNA-binding
[15] = EMSA with DS48 duplex, average±SD, n=3, read-out: IC50, half-maximal inhibitory concentration of HUSpm-DNA complex formation

HUMgal, sequence (A0A0F6CKR5 entry or part of it): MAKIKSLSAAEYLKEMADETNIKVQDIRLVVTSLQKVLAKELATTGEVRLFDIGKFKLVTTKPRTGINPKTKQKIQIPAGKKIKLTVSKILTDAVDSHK
T1 sequence (P0ACF0 whole entry): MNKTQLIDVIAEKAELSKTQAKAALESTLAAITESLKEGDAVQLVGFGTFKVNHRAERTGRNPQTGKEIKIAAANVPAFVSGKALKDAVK

Compound: 4,5'-[4,4'-(9H-fluorene-9,9-diyl)bis(4,1-phenylene)]-bis(oxy)-bis(oxomethylene)-bis[2-(m-tolylcarbamoyl)-benzoic acid] [BDF5]
- IC50 [1, 13]: 6.3 ± 0.7 µM
- IC50 [2, 14]: 5.9 ± 0.8 µM

Compound: O=C(Oc1ccc(C2(c3ccc(OC(=O)c4ccc(C(=O)O)c(C(=O)O)c4)cc3)c3ccccc3-c3ccccc32)cc1)c1ccc(C(=O)O)c(C(=O)O)c1 [BDF1]
- Inhibition of HUSpm-DNA binding, first round of EMSA ([1]; 100 μM compound, DS48): inhibits HUSpm-DNA binding
- IC50 [1, 13]: 6.2 ± 0.5 µM
- IC50 [1, 15]: 6.5 ± 0.9 µM

Compound: O=C(Oc1ccc(C2(c3ccc(OC(=O)c4ccc(C(=O)O)c(C(=O)O)c4)cc3)c3ccccc3-c3ccccc32)cc1)c1ccc(C(=O)O)c(C(=O)O)c1 [BDF4, 4,4'-[4,4'-(9H-fluorene-9,9-diyl)-bis(4,1-phenylene)]-bis(oxy)-bis(oxomethylene)diphthalic acid]
- Effect of other mutations (F14A, F29A, F31A) on sensitivity to inhibitor [3]: did not cause any significant effects
- IC50 [4]: 6.3 ± 1.2 µM
- IC50 [5]: 5.9 ± 0.9 µM
- Decrease of the IC50 value as compared to wild type HUSpm ([6]; HUSpm_K35T vs wild type, DS24a): about threefold decrease
- IC50 ([6]; read-out: IC50 against HUSpm mutant HUSpm_K35T, EMSA with DS24a, mean ± SD from three runs, 30 nM protein): 1.8 ± 0.3 µM
- IC50 ([1]; read-out: IC50, half-maximal inhibitory concentration of HUSpm-DNA complex formation, EMSA with DS24a duplex, average±SD from three runs): 5.6 ± 0.8 µM
- Solubility [7]: water solubility
- IC50 [8]: 6.3 ± 1 µM
- MIC ([9]; Mycoplasmoides gallisepticum, S6, read-out: MIC, minimal inhibitory concentration): 40 to 70 µM (≈ 29.4 to 51.4 µg/mL)
- MIC ([10]; Spiroplasma melliferum, KC3, read-out: MIC, minimal inhibitory concentration): 40 to 70 µM (≈ 29.4 to 51.4 µg/mL)
- IC50 [2, 14]: 5 ± 0.6 µM

Compound: O=C(O)c1cccc(C(=O)Oc2ccc(C3(c4ccc(OC(=O)c5cccc(C(=O)O)c5)cc4)c4ccccc4-c4ccccc43)cc2)c1 [BDF6, 3.3′-[4.4′-(9H-fluorene-9.9-diyl)-bis(4.1-phenylene)]-bis(oxy)-bis(oxomethylene)-dibenzoic acid]
- IC50 ([11]; IC50, inhibition of HUEc DNA-binding, EMSA with DS24a, average ± SD from three runs): 10 ± 1.3 µM
- IC50 ([11]; IC50 given in figure, HUEc DNA binding, DS24a, representative result of one independent assay): 9.5 µM
- IC50 ([1]; IC50, half-maximal inhibitory concentration of HUSpm-DNA complex formation, EMSA with DS24a duplex, average±SD from three runs): 8.2 ± 1.1 µM
- IC50 ([1]; IC50 given in figure, HUSpm-DNA binding, DS24a, representative result of one independent assay): 8.7 µM
- Solubility [7]: limited solubility
- MIC, minimal inhibitory concentration [9]: worst MIC
- MIC, minimal inhibitory concentration [10]: worst MIC
- IC50 ([2]; DS24a, representative result of one independent assay, read-out: IC50 given in figure, HUMgal DNA binding): 8.2 µM
- IC50 [2, 14]: 8.1 ± 1 µM

Compound: CSCCC(NS(=O)(=O)c1ccc2c(c1)C(=O)c1cc(S(=O)(=O)NC(CCSC)C(=O)O)ccc1-2)C(=O)O (stereo not shown) [compound 3]
- IC50 [1, 15]: > 100 µM

Compound: AGTCTAGAGTGCAAGTTGAGTCCTT / AAGGACTCAACTGCACTCTAGACT [DS24a (24a)]
- Kd [12]: 0.0026 µM

Compound: AGTCTAGAGTGCAGTTGAGTCCTTGCTACGACGGATCCCTTAGGTCAG (double strand) [DS48 (48)]
- Kd [12]: 0.0186 µM

Compound: AGTCTAGAGTGCAGTTGAGTCCTTGCTACGACGGATCCCTTAGGTCAG / AAGGACTCAACTGCACTCTAGACT / CTGACCTAAGGGATCCGTCGTAG [Nick (N)]
- Kd [12]: 0.0052 µM

Compound: AGTCTAGAGTGCAGTTGAGTCCTTGCTACGACGGATCCCTTAGGTCAG / CTGACCTAAGGGATCCGTCGTAGCAAGAAAAAAAGACTCAACTGCACTCTAGACT [A7 bulge (A7)]
- Kd [12]: 0.002 µM

Compound: AGTCTAGAGTGCAGTTGAGTCCTTGCTACGACGGATCCCTTAGGTCAG / CTGACCTAAGGGATCCGTCGTAGCAAGAGACTCAACTGCACTCTAGACT [A1 bulge (A1)]
- Kd [12]: 0.0025 µM
